Experiment [1] deals with human Adenosine A2a receptor (Homo sapiens (Human), UniProt P29274). Nature of the experiment: Adenosine receptor TR-FRET binding assay (A2a). Particulars: inhibition of binding of 100 nM CA200645, CHO cell membranes. An outline of the steps:
(§1)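 Compounds were serially diluted 1:3 in DMSO, then incubated with CHO membranes bearing Tb-tagged human receptor plus CA200645 (A2b 30 nM; A1, A2a, A3 100 nM) for 2 h at room temperature. Time-resolved FRET was read, non-specific binding subtracted using 10 μM XAC, and Ki calculated.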
A general note: In TR-FRET formats the signal depends on donor and acceptor labels being close together.

For experiment [2], the target named is human Adenosine A3 receptor (Homo sapiens (Human), UniProt P0DMS8). Briefly: Adenosine receptor TR-FRET binding assay (A3). To be noted: inhibition of binding of 100 nM CA200645, CHO cell membranes. An outline of the steps: as §1
For experiment [3], the target named is human Adenosine A2b receptor (Homo sapiens (Human), UniProt P29275). Briefly: Adenosine receptor TR-FRET binding assay (A2b). To be noted: TR-FRET, inhibition of binding of 30 nM CA200645, CHO cell membranes. A digest of the protocol:
as §1

The subject of a further experiment is human PBMCs. Nature of the experiment: CD3/CD28 stimulated IL-2 release NECA reversal assay in human PBMCs. The class given is cell-based. To be noted: PBMC, 1 uM NECA, 24 hours, IL-2 in culture supernatant. An outline of the steps:
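PBMCs from citrated healthy-donor blood plated at 50,000 cells/well on 1 ug/ml CD3 antibody with 1 ug/ml CD28 antibody, 1 uM NECA and 0.003-10 μM antagonist (final), 24 h at 37° C. Supernatant IL-2 measured by MSD immunoassay; % inhibition set against no-NECA control wells as 100%.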

In experiment [4] the target is human Adenosine A1 receptor (Homo sapiens (Human), UniProt P30542). Nature of the experiment: Adenosine receptor TR-FRET binding assay (A1). To be noted: inhibition of binding of 100 nM CA200645, CHO cell membranes. An outline of the steps: as §1
Experiment [5] has as its system CD8+T cells in human whole blood. Briefly: Measurement of pCREB in CD8+T cells in human whole blood. Particulars: 3 μM NECA, rolipram. The class given is cell-based. A digest of the protocol: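 Heparinised human whole blood pre-incubated 20 min at 37 °C with serially diluted A2a antagonists plus rolipram, then stimulated 60 min with 3 μM NECA (final). After fixation and red-cell lysis, white cells were permeabilized and stained for phospho-CREB and CD8; pCREB in CD8+ T cells measured by flow cytometry.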

The source of these data is patent publication US20230293517A1, “ANTAGONIST COMPOUNDS” (AdoRx Therapeutics Limited, priority 2020, published 2023).

human Adenosine A2b receptor, sequence (P29275 whole entry): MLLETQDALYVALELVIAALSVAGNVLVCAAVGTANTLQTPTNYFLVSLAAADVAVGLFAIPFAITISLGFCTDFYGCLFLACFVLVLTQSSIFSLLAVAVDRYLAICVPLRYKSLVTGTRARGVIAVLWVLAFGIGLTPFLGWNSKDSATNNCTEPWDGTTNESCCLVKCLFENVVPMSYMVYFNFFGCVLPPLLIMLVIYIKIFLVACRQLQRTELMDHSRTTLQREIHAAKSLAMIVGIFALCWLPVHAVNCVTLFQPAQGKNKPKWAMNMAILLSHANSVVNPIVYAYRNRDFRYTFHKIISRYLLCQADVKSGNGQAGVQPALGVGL
human Adenosine A3 receptor, sequence (P0DMS8 whole entry): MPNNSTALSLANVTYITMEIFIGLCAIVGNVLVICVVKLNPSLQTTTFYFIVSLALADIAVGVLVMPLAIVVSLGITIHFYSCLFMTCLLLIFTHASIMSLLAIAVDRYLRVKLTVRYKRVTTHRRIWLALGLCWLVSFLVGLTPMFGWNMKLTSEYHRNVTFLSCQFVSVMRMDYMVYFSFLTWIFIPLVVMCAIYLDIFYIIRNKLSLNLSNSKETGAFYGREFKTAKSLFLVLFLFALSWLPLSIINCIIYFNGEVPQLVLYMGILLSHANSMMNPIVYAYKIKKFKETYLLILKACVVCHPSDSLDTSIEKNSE
human Adenosine A2a receptor, sequence (P29274 whole entry): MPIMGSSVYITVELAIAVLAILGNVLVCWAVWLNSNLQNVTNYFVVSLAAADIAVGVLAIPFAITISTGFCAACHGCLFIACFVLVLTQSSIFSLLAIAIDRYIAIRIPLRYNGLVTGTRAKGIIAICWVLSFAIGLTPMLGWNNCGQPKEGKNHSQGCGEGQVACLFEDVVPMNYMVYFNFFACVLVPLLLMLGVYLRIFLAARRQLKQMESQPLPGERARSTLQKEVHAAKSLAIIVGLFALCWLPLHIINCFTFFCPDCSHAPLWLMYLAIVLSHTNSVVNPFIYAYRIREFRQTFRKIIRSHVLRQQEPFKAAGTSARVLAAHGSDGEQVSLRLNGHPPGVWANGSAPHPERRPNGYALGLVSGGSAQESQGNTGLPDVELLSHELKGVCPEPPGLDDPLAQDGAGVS
human Adenosine A1 receptor, sequence (P30542 whole entry): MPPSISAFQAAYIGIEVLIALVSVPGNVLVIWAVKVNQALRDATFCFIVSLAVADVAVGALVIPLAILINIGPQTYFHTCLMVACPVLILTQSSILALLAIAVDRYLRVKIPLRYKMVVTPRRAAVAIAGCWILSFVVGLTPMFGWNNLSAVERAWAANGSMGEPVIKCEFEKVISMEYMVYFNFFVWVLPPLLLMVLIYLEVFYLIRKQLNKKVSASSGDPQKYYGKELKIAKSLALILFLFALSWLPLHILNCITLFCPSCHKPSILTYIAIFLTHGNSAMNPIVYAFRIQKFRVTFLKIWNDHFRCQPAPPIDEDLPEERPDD

As for `Cc1cc(-c2sc(NC(=O)N3CCN[C@H](C(N)=O)C3)nc2-c2cccc(C#N)c2)cc(Cl)n1` [Example 5.8, (3S)-N1-[5-(2-Chloro-6-methyl-4-pyridyl)-4-(3-cyanophenyl)thiazol-2-yl]piperazine-1,3-dicarboxamide], the Ki – broadly, the dissociation constant of the complex between target and ligand, obtained from inhibition or displacement – in experiment [1] was 0.68 nM; in experiment [2] it was 474 nM; in experiment [3], 1.8 nM; in experiment [4], 34 nM. Moreover, the IC50 (in general, the concentration that inhibits the measured activity by half) with human PBMCs came out at 18.4 nM; in experiment [5], 980 nM.
In the case of `Cc1cc(-c2sc(NC(=O)N3CCC(C)(N)CC3)nc2-c2cccc(C#N)c2)cc(Cl)n1` [Example 5.9, 4-Amino-N-[5-(2-chloro-6-methyl-4-pyridyl)-4-(3-cyanophenyl)thiazol-2-yl]-4-methyl-piperidine-1-carboxamide], the Ki in experiment [1] was determined as 2.32 nM; in experiment [2], 125 nM; in experiment [3], 4.3 nM; in experiment [4], 82 nM. Besides, the IC50 in the experiment on human PBMCs was 18.3 nM; in experiment [5], 1000 nM.
As for `Cc1cc(-c2sc(NC(=O)N3CCC4(CC3)CNC(=O)C4)nc2-c2cccc(C#N)c2)cc(C)n1` [Example 6.4, N-[4-(3-Cyanophenyl)-5-(2,6-dimethyl-4-pyridyl)thiazol-2-yl]-3-oxo-2,8-diazaspiro[4.5]decane-8-carboxamide], the Ki in experiment [1] was determined as 0.67 nM; in experiment [2], 360 nM; in experiment [3], 3.1 nM; in experiment [4], 103 nM. Further, the half-maximal inhibitory concentration (IC50) in the experiment with human PBMCs amounted to 1.4 nM; in experiment [5], 190 nM.
Regarding `Cc1cc(-c2sc(NC(=O)N3CCC4(CC3)COC4)nc2-c2cccc(C#N)c2)cc(C)n1` [Example 6.10, N-[4-(3-Cyanophenyl)-5-(2,6-dimethyl-4-pyridyl)thiazol-2-yl]-2-oxa-7-azaspiro[3.5]nonane-7-carboxamide], the Ki in experiment [1] was 0.3 nM; in experiment [2], 316 nM; in experiment [3] it was 1.2 nM; in experiment [4], 14 nM. Further, the 50% inhibitory concentration (IC50) in the experiment on human PBMCs was 2.9 nM; in experiment [5], 40 nM.
As to `Cc1cc(-c2sc(NC(=O)N3CCC4(CC3)CNC(=O)N4)nc2-c2cccc(C#N)c2)cc(C)n1` [Example 6.11, N-[4-(3-Cyanophenyl)-5-(2,6-dimethyl-4-pyridyl)thiazol-2-yl]-2-oxo-1,3,8-triazaspiro[4.5]decane-8-carboxamide], the Ki stood at 0.39 nM in experiment [1], 319 nM in experiment [2], 2.6 nM in experiment [3] and 42 nM in experiment [4]. The IC50 with human PBMCs was 5.2 nM; in experiment [5] it was 50 nM.
In the case of `Cc1cc(-c2sc(NC(=O)N3CCC4(CC3)CN(C)C(=O)O4)nc2-c2cccc(C#N)c2)cc(C)n1` [Example 6.12, N-[4-(3-Cyanophenyl)-5-(2,6-dimethyl-4-pyridyl)thiazol-2-yl]-3-methyl-2-oxo-1-oxa-3,8-diazaspiro[4.5]decane-8-carboxamide], the inhibition constant (Ki) in experiment [1] is 0.23 nM; in experiment [2], 298 nM; in experiment [3], 2.4 nM; in experiment [4], 137 nM. For the same molecule, the IC50 was 2.7 nM with human PBMCs and 110 nM in experiment [5].
Regarding `Cc1cc(-c2sc(NC(=O)N3CCN4CCS(=O)(=O)CC4C3)nc2-c2cccc(C#N)c2)cc(C)n1` (stereo not drawn) [Example 6.14, N-[4-(3-Cyanophenyl)-5-(2,6-dimethyl-4-pyridyl)thiazol-2-yl]-2,2-dioxo-3,4,6,7,9,9a-hexahydro-1H-pyrazino[2,1-c][1,4]thiazine-8-carboxamide], the Ki in experiment [1] was 0.6 nM; in experiment [2], 772 nM; in experiment [3] it was 2.6 nM; in experiment [4], 167 nM. The IC50 in the experiment on human PBMCs was 5.3 nM; in experiment [5], 50 nM.
Regarding `Cc1cc(-c2sc(NC(=O)N3CCN4C(=O)OCCC4C3)nc2-c2cccc(C#N)c2)cc(C)n1` (stereo not drawn) [Example 6.17, N-[4-(3-Cyanophenyl)-5-(2,6-dimethyl-4-pyridyl)thiazol-2-yl]-6-oxo-1,3,4,8,9,9a-hexahydropyrazino[1,2-c][1,3]oxazine-2-carboxamide], the Ki in experiment [1] was 0.46 nM; in experiment [2] it was 405 nM; in experiment [3], 6.5 nM; in experiment [4], 35 nM. In addition, the results for the IC50 (with human PBMCs; in experiment [5]) were 5.3 nM and 70 nM, respectively.
Consider `Cc1cc(-c2sc(NC(=O)N3CCN4C(=O)CCC4C3)nc2-c2cccc(C#N)c2)cc(C)n1` (stereo not drawn) [Example 6.18, N-[4-(3-Cyanophenyl)-5-(2,6-dimethyl-4-pyridyl)thiazol-2-yl]-6-oxo-1,3,4,7,8,8a-hexahydropyrrolo[1,2-a]pyrazine-2-carboxamide], for which the Ki turned out to be 0.33 nM in experiment [1], 332 nM in experiment [2], 6.1 nM in experiment [3] and 70 nM in experiment [4]. Moreover, the IC50 in the experiment with human PBMCs was 5 nM; in experiment [5], 40 nM.
Take `Cc1cc(-c2sc(NC(=O)N3CCC4(CC3)CNC4=O)nc2-c2cccc(C#N)c2)cc(C)n1` [Example 6.20, N-[4-(3-Cyanophenyl)-5-(2,6-dimethyl-4-pyridyl)thiazol-2-yl]-3-oxo-2,7-diazaspiro[3.5]nonane-7-carboxamide]: the inhibitory constant (Ki) in experiment [1] came out at 0.14 nM; in experiment [2], 287 nM; in experiment [3], 1.9 nM; in experiment [4], 53 nM. Besides, the half-maximal inhibitory concentration (IC50) worked out at 1.8 nM in the experiment with human PBMCs and 20 nM in experiment [5].
Regarding `Cc1cc(-c2sc(NC(=O)N3CCC4(CCNC4=O)CC3)nc2-c2cccc(C#N)c2)cc(C)n1` [Example 6.24, N-[4-(3-Cyanophenyl)-5-(2,6-dimethyl-4-pyridyl)thiazol-2-yl]-1-oxo-2,8-diazaspiro[4.5]decane-8-carboxamide], the Ki turned out to be 0.99 nM in experiment [1], 224 nM in experiment [2], 2.5 nM in experiment [3] and 129 nM in experiment [4]. Besides, the 50% inhibitory concentration (IC50) turned out to be 4.7 nM in the experiment on human PBMCs and 90 nM in experiment [5].
On to `Cc1cc(-c2sc(NC(=O)N3CCC4(CCNC(=O)C4)CC3)nc2-c2cccc(C#N)c2)cc(C)n1` [Example 6.26, N-[4-(3-Cyanophenyl)-5-(2,6-dimethyl-4-pyridyl)thiazol-2-yl]-10-oxo-3,9-diazaspiro[5.5]undecane-3-carboxamide], for which the inhibition constant Ki in experiment [1] came to 0.79 nM; in experiment [2], 302 nM; in experiment [3], 3.8 nM; in experiment [4], 86 nM. The IC50 with human PBMCs is 3.2 nM; in experiment [5], 80 nM.
Take `Cc1cc(-c2sc(NC(=O)N3CCC4(CCOCC4)C3)nc2-c2cccc(C#N)c2)cc(C)n1` [Example 6.29, N-[4-(3-Cyanophenyl)-5-(2,6-dimethyl-4-pyridyl)thiazol-2-yl]-8-oxa-2-azaspiro[4.5]decane-2-carboxamide]: the inhibition constant Ki in experiment [1] amounted to 0.95 nM; in experiment [2], 635 nM; in experiment [3] it was 3.4 nM; in experiment [4], 228 nM. Besides, the concentration for half-maximal inhibition (IC50) with human PBMCs turned out to be 5.3 nM; in experiment [5], 510 nM.
Turning to `Cc1cc(-c2sc(NC(=O)N3CCC(N4CCNC4=O)CC3)nc2-c2cccc(C#N)c2)cc(C)n1` [Example 6.30, N-[4-(3-Cyanophenyl)-5-(2,6-dimethyl-4-pyridyl)thiazol-2-yl]-4-(2-oxoimidazolidin-1-yl)piperidine-1-carboxamide], the Ki was determined as 0.82 nM in experiment [1], 187 nM in experiment [2], 2 nM in experiment [3] and 97 nM in experiment [4]. Also, the IC50 with human PBMCs came out at 6.9 nM; in experiment [5], 530 nM.
Turning to `CN=S1(=O)CCN(C(=O)Nc2nc(-c3cccc(C#N)c3)c(-c3cc(C)nc(C)c3)s2)CC1` [Example 6.32, N-[4-(3-Cyanophenyl)-5-(2,6-dimethyl-4-pyridyl)thiazol-2-yl]-1-methylimino-1-oxo-1,4-thiazinane-4-carboxamide], the Ki in experiment [1] was 0.83 nM; in experiment [2] it was 719 nM; in experiment [3], 5.4 nM; in experiment [4], 109 nM. The IC50 was found to be 8.6 nM in the experiment with human PBMCs and 230 nM in experiment [5].
For the molecule `Cc1cc(-c2sc(NC(=O)N3CCC4(CC3)CC(=O)N(C)C4)nc2-c2cccc(C#N)c2)cc(C)n1` [Example 6.38, N-[4-(3-Cyanophenyl)-5-(2,6-dimethyl-4-pyridyl)thiazol-2-yl]-2-methyl-3-oxo-2,8-diazaspiro[4.5]decane-8-carboxamide], the inhibition constant (Ki) in experiment [1] turned out to be 0.83 nM; in experiment [2], 278 nM; in experiment [3], 3.6 nM; in experiment [4], 170 nM. Besides, the figures for the IC50 (with human PBMCs; in experiment [5]) were 6 nM and 580 nM, respectively.
On to `Cc1cc(-c2sc(NC(=O)N3CCC4(CCC(=O)NC4)CC3)nc2-c2cccc(C#N)c2)cc(C)n1` [Example 6.40, N-[4-(3-Cyanophenyl)-5-(2,6-dimethyl-4-pyridyl)thiazol-2-yl]-3-oxo-2,9-diazaspiro[5.5]undecane-9-carboxamide], for which the Ki in experiment [1] is 0.41 nM; in experiment [2], 330 nM; in experiment [3], 4.6 nM; in experiment [4], 110 nM. Also, the half-inhibitory concentration (IC50) with human PBMCs came out at 2.2 nM; in experiment [5], 80 nM.
